Data from BigSolDB 2.1.

Compound: Clc1cccnc1Cl
- solubility (mole fraction) (in 1,4-dioxane, 288.15 K): 0.241
- solubility (mole fraction) (in 1,4-dioxane, 293.15 K): 0.285
- solubility (mole fraction) (in 1,4-dioxane, 298.15 K): 0.332
- solubility (mole fraction) (in 1,4-dioxane, 303.15 K): 0.382
- solubility (mole fraction) (in 1,4-dioxane, 308.15 K): 0.442
- solubility (mole fraction) (in 1,4-dioxane, 313.15 K): 0.514
- solubility (mole fraction) (in acetonitrile, 278.15 K): 0.061
- solubility (mole fraction) (in acetonitrile, 283.15 K): 0.0806
- solubility (mole fraction) (in acetonitrile, 288.15 K): 0.108
- solubility (mole fraction) (in acetonitrile, 293.15 K): 0.137
- solubility (mole fraction) (in acetonitrile, 298.15 K): 0.178
- solubility (mole fraction) (in acetonitrile, 303.15 K): 0.23
- solubility (mole fraction) (in acetonitrile, 308.15 K): 0.295
- solubility (mole fraction) (in acetonitrile, 313.15 K): 0.389
- solubility (mole fraction) (in cyclohexane, 283.15 K): 0.0334
- solubility (mole fraction) (in cyclohexane, 288.15 K): 0.045
- solubility (mole fraction) (in cyclohexane, 293.15 K): 0.061
- solubility (mole fraction) (in cyclohexane, 298.15 K): 0.0796
- solubility (mole fraction) (in cyclohexane, 303.15 K): 0.106
- solubility (mole fraction) (in cyclohexane, 308.15 K): 0.145
- solubility (mole fraction) (in cyclohexane, 313.15 K): 0.187
- solubility (mole fraction) (in dichloromethane, 278.15 K): 0.213
- solubility (mole fraction) (in dichloromethane, 283.15 K): 0.238
- solubility (mole fraction) (in dichloromethane, 288.15 K): 0.27
- solubility (mole fraction) (in dichloromethane, 293.15 K): 0.304
- solubility (mole fraction) (in dichloromethane, 298.15 K): 0.346
- solubility (mole fraction) (in dichloromethane, 303.15 K): 0.386
- solubility (mole fraction) (in dichloromethane, 308.15 K): 0.432
- solubility (mole fraction) (in dichloromethane, 313.15 K): 0.489
- solubility (mole fraction) (in ethanol, 278.15 K): 0.0314
- solubility (mole fraction) (in ethanol, 283.15 K): 0.0418
- solubility (mole fraction) (in ethanol, 288.15 K): 0.0558
- solubility (mole fraction) (in ethanol, 293.15 K): 0.071
- solubility (mole fraction) (in ethanol, 298.15 K): 0.0902
- solubility (mole fraction) (in ethanol, 303.15 K): 0.115
- solubility (mole fraction) (in ethanol, 308.15 K): 0.145
- solubility (mole fraction) (in ethanol, 313.15 K): 0.188
- solubility (mole fraction) (in ethyl acetate, 278.15 K): 0.166
- solubility (mole fraction) (in ethyl acetate, 283.15 K): 0.194
- solubility (mole fraction) (in ethyl acetate, 288.15 K): 0.223
- solubility (mole fraction) (in ethyl acetate, 293.15 K): 0.259
- solubility (mole fraction) (in ethyl acetate, 298.15 K): 0.302
- solubility (mole fraction) (in ethyl acetate, 303.15 K): 0.349
- solubility (mole fraction) (in ethyl acetate, 308.15 K): 0.398
- solubility (mole fraction) (in ethyl acetate, 313.15 K): 0.46
- solubility (mole fraction) (in isobutanol, 278.15 K): 0.0394
- solubility (mole fraction) (in isobutanol, 283.15 K): 0.0507
- solubility (mole fraction) (in isobutanol, 288.15 K): 0.0654
- solubility (mole fraction) (in isobutanol, 293.15 K): 0.0836
- solubility (mole fraction) (in isobutanol, 298.15 K): 0.108
- solubility (mole fraction) (in isobutanol, 303.15 K): 0.14
- solubility (mole fraction) (in isobutanol, 308.15 K): 0.18
- solubility (mole fraction) (in isobutanol, 313.15 K): 0.232
- solubility (mole fraction) (in isopropanol, 278.15 K): 0.032
- solubility (mole fraction) (in isopropanol, 283.15 K): 0.0401
- solubility (mole fraction) (in isopropanol, 288.15 K): 0.0532
- solubility (mole fraction) (in isopropanol, 293.15 K): 0.0687
- solubility (mole fraction) (in isopropanol, 298.15 K): 0.0895
- solubility (mole fraction) (in isopropanol, 303.15 K): 0.117
- solubility (mole fraction) (in isopropanol, 308.15 K): 0.154
- solubility (mole fraction) (in isopropanol, 313.15 K): 0.2
- solubility (mole fraction) (in methanol, 278.15 K): 0.0181
- solubility (mole fraction) (in methanol, 283.15 K): 0.0259
- solubility (mole fraction) (in methanol, 288.15 K): 0.0362
- solubility (mole fraction) (in methanol, 293.15 K): 0.0505
- solubility (mole fraction) (in methanol, 298.15 K): 0.0676
- solubility (mole fraction) (in methanol, 303.15 K): 0.0943
- solubility (mole fraction) (in methanol, 308.15 K): 0.129
- solubility (mole fraction) (in methanol, 313.15 K): 0.178
- solubility (mole fraction) (in methyl acetate, 278.15 K): 0.146
- solubility (mole fraction) (in methyl acetate, 283.15 K): 0.172
- solubility (mole fraction) (in methyl acetate, 288.15 K): 0.203
- solubility (mole fraction) (in methyl acetate, 293.15 K): 0.237
- solubility (mole fraction) (in methyl acetate, 298.15 K): 0.28
- solubility (mole fraction) (in methyl acetate, 303.15 K): 0.321
- solubility (mole fraction) (in methyl acetate, 308.15 K): 0.374
- solubility (mole fraction) (in methyl acetate, 313.15 K): 0.425
- solubility (mole fraction) (in n-butanol, 278.15 K): 0.0489
- solubility (mole fraction) (in n-butanol, 283.15 K): 0.0607
- solubility (mole fraction) (in n-butanol, 288.15 K): 0.0798
- solubility (mole fraction) (in n-butanol, 293.15 K): 0.0983
- solubility (mole fraction) (in n-butanol, 298.15 K): 0.123
- solubility (mole fraction) (in n-butanol, 303.15 K): 0.155
- solubility (mole fraction) (in n-butanol, 308.15 K): 0.197
- solubility (mole fraction) (in n-butanol, 313.15 K): 0.249
- solubility (mole fraction) (in n-butyl acetate, 278.15 K): 0.185
- solubility (mole fraction) (in n-butyl acetate, 283.15 K): 0.213
- solubility (mole fraction) (in n-butyl acetate, 288.15 K): 0.246
- solubility (mole fraction) (in n-butyl acetate, 293.15 K): 0.282
- solubility (mole fraction) (in n-butyl acetate, 298.15 K): 0.324
- solubility (mole fraction) (in n-butyl acetate, 303.15 K): 0.372
- solubility (mole fraction) (in n-butyl acetate, 308.15 K): 0.424
- solubility (mole fraction) (in n-butyl acetate, 313.15 K): 0.487
- solubility (mole fraction) (in n-hexane, 278.15 K): 0.0154
- solubility (mole fraction) (in n-hexane, 283.15 K): 0.0216
- solubility (mole fraction) (in n-hexane, 288.15 K): 0.029
- solubility (mole fraction) (in n-hexane, 293.15 K): 0.0387
- solubility (mole fraction) (in n-hexane, 298.15 K): 0.0516
- solubility (mole fraction) (in n-hexane, 303.15 K): 0.0684
- solubility (mole fraction) (in n-hexane, 308.15 K): 0.0906
- solubility (mole fraction) (in n-hexane, 313.15 K): 0.123
- solubility (mole fraction) (in n-propanol, 278.15 K): 0.0378
- solubility (mole fraction) (in n-propanol, 283.15 K): 0.0479
- solubility (mole fraction) (in n-propanol, 288.15 K): 0.0606
- solubility (mole fraction) (in n-propanol, 293.15 K): 0.0804
- solubility (mole fraction) (in n-propanol, 298.15 K): 0.1
- solubility (mole fraction) (in n-propanol, 303.15 K): 0.129
- solubility (mole fraction) (in n-propanol, 308.15 K): 0.164
- solubility (mole fraction) (in n-propanol, 313.15 K): 0.211
